Values of other authors as cited in patent publication US6638431B2, “Formulation and method for treating wetted surface elements in climate control systems” (Mainstream Engineering Corporation, priority 2001, dated 2003).

Tested on: Legionella pneumophilia

## [Ag] [Ag, silver]
  concentration in water effective against Legionella pneumophilia: about 0.02 ppm
